Results on 18 compounds are retold here after patent US8710198B2, “Caprazene as a novel compound and derivatives thereof, and caprazol as a novel compound and derivatives thereof” (Meiji Seika Pharma Co., Ltd., priority 2003, dated 2014).

One assay relates to bacteria. Put plainly: Antibacterial activity. It is filed as cell-based. The settings on record: statement in words.
In the next assay the target is enzyme MraY (Escherichia coli, UniProt P0A6W3). The settings on record: statement in words.
enzyme MraY, sequence (P0A6W3 whole entry): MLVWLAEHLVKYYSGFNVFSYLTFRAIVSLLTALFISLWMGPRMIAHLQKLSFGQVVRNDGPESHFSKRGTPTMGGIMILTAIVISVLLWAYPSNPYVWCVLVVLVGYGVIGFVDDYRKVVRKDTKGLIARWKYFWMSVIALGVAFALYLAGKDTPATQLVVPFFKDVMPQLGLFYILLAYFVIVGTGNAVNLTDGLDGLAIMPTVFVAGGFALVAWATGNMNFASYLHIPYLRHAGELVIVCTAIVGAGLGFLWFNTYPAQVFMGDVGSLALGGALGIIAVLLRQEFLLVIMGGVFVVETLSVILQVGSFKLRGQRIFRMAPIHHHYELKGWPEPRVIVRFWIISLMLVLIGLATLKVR
For a further assay, the system named is acid-fast bacteria. The settings on record: statement in words, WO 01/12643A1 / EP 1211259A1; cited from earlier work.
A further assay deals with Micrococcus luteus FDA16. Put plainly: Minimum growth inhibitory concentration on agar culture medium by serial dilution method (Japanese Society of Chemotherapy). It is filed as cell-based. An outline of the steps:
(§1)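 MICs (mcg/ml) were determined by serial dilution on agar culture medium, following the Japanese Society of Chemotherapy standard method.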

Assay [1] concerns Staphylococcus aureus FDA209P. The assay is described as above. In kind it is cell-based. An outline of the steps: as §1
Assay [2] concerns Staphylococcus aureus ATCC607. Put plainly: Minimum growth inhibitory concentration on agar medium by serial dilution method, Table 14. It is filed as cell-based. The protocol: Minimum growth inhibitory concentrations (mcg/ml) of caprazene-1′″-amide derivatives of the formula (II) against some of microorganisms were measured on an agar culture medium by a serial dilution method according to the standard method as provided by Japanese Society of Chemotherapy. For the cultivation of Mycobacterium smegmatis (one of […]), however, there was used an agar culture medium with the addition of 1% glycerine (the same applies to in the following tests).
Minimum growth inhibitory concentrations (mcg/ml) of some of the derivative of the formula (VIII) against a variety of microorganisms were measured on an agar medium by a serial dilution method according to the standard method as provided by Japanese Society of Chemotherapy.

In assay [3] the test system is Mycobacterium smegmatis ATCC607. Put plainly: Minimum growth inhibitory concentration on agar culture medium with 1% glycerine by serial dilution method. The conditions noted are these: agar culture medium with the addition of 1% glycerine. In kind it is cell-based. An outline of the steps: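 MICs (mcg/ml) were determined by agar serial dilution following the Japanese Society of Chemotherapy standard method. For M. smegmatis the agar medium was supplemented with 1% glycerine.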

Regarding `CN1C[C@H](O)[C@@H](C(=O)O)N(C)C(=O)[C@@H]1[C@H](O[C@@H]1O[C@H](CN)[C@@H](O)[C@H]1O)[C@H]1O[C@@H](n2ccc(=O)[nH]c2=O)[C@H](O)[C@@H]1O` [caprazol], the antibacterial activity entry with bacteria was “no antibacterial activity”. Besides, the “inhibitory activity against enzyme MraY” value on enzyme MraY was “inhibitory activity against enzyme MraY”.

Turning to `CN1C(=O)[C@H](C(O[C@@H]2O[C@H](CN)[C@@H](O)[C@H]2O)[C@H]2O[C@@H](n3ccc(=O)[nH]c3=O)[C@H](O)[C@@H]2O)N(C)CC=C1C(=O)O` (stereo partly drawn) [Caprazene, caprazene], the antibacterial activity result with bacteria is reported as “no antibacterial activity”. Besides, the “inhibitory activity against enzyme MraY” value against enzyme MraY was “inhibitory activity against enzyme MraY”.

On to `CCCCCCCCCCC[C@@H](CC(=O)O[C@H]1CN(C)[C@@H](C(O[C@@H]2O[C@H](CN)[C@@H](O)[C@H]2O)[C@H]2O[C@@H](n3ccc(=O)[nH]c3=O)[C@H](O)[C@@H]2O)C(=O)N(C)[C@@H]1C(=O)O)OC(=O)C[C@H](C)CC(=O)O[C@@H]1O[C@H](C)[C@@H](OC)[C@@H](OC)[C@H]1OC` (stereo partly drawn) [caprazamycin E], for which the “antibacterial activities against acid-fast bacteria” value (“antibacterial activities” below) in the assay on acid-fast bacteria is “high antibacterial activities”.

caprazamycin B: the “antibacterial activities” value with acid-fast bacteria is reported as “high antibacterial activities”.

With `CCCCCCCCCCCCC[C@@H](CC(=O)O[C@H]1CN(C)[C@@H](C(O[C@@H]2O[C@H](CN)[C@@H](O)[C@H]2O)[C@H]2O[C@@H](n3ccc(=O)[nH]c3=O)[C@H](O)[C@@H]2O)C(=O)N(C)[C@@H]1C(=O)O)OC(=O)C[C@H](C)CC(=O)O[C@@H]1O[C@H](C)[C@@H](OC)[C@@H](OC)[C@H]1OC` (stereo partly drawn) [caprazamycin A], the “antibacterial activities” value in the assay with acid-fast bacteria is reported as “high antibacterial activities”.

Consider `CO[C@H]1[C@@H](OC)[C@H](OC(=O)C[C@@H](C)CC(=O)O[C@@H](CCCCCCCCC(C)C)CC(=O)O[C@H]2CN(C)[C@@H](C(O[C@@H]3O[C@H](CN)[C@@H](O)[C@H]3O)[C@H]3O[C@@H](n4ccc(=O)[nH]c4=O)[C@H](O)[C@@H]3O)C(=O)N(C)[C@@H]2C(=O)O)O[C@H](C)[C@H]1OC` (stereo partly drawn) [caprazamycin F], for which, in the assay with acid-fast bacteria, the “antibacterial activities” value is given as “high antibacterial activities”.

Consider `CCCCCCCCCCN1C(=O)C(C(O)CN(C)C(C(=O)NC)C(OC2OC(CN)C(O)C2O)C2OC(n3ccc(=O)[nH]c3=O)C(O)C2O)N(C)C1=O` (stereo not drawn) [Compound VIII-E], for which the “Minimum growth inhibitory concentration (mcg/ml) against bacteria Micrococcus luteus FDA16” value in the assay with Micrococcus luteus FDA16 is 6.25 µg/mL. Moreover, the “Minimum growth inhibitory concentration (mcg/ml) against bacteria Staphylococcus aureus FDA209P” value in assay [1] was found to be 25 µg/mL. Further, in assay [2], the “Minimum growth inhibitory concentration (mcg/ml) against bacteria Staphylococcus aureus ATCC607” value is 6.25 µg/mL.

For the compound `CCCCCCCCCCCNC(=O)C1C(OC(=O)CCCCCCCCCCC)CN(C)C(C(OC2OC(CN)C(O)C2O)C2OC(n3ccc(=O)[nH]c3=O)C(O)C2O)C(=O)N1C` (stereo not drawn) [Compound VI-F], the “Minimum growth inhibitory concentration (mcg/ml) against bacteria Micrococcus luteus FDA16” value in the assay on Micrococcus luteus FDA16 was 3.13 µg/mL. Moreover, in assay [1], the “Minimum growth inhibitory concentration (mcg/ml) against bacteria Staphylococcus aureus FDA209P” value was 12.5 µg/mL. The “Minimum growth inhibitory concentration (mcg/ml) against bacteria Mycobacterium smegmatis ATCC607” value in assay [3] was found to be 6.25 µg/mL.

Take `CCCCCCCCCCCCCCCNC(=O)C1=CCN(C)C(C(OC2OC(CN)C(O)C2O)C2OC(n3ccc(=O)[nH]c3=O)C(O)C2O)C(=O)N1C` (stereo not drawn) [Compound II-J]: in the assay on Micrococcus luteus FDA16, the “Minimum growth inhibitory concentration (mcg/ml) against bacteria Micrococcus luteus FDA16” value amounted to 0.78 µg/mL. In assay [1], the “Minimum growth inhibitory concentration (mcg/ml) against bacteria Staphylococcus aureus FDA209P” value was found to be 1.56 µg/mL. In addition, in assay [3], the “Minimum growth inhibitory concentration (mcg/ml) against bacteria Mycobacterium smegmatis ATCC607” value was determined as 1.56 µg/mL.

Consider `CCCCCCCCC(=O)OC1CN(C)C(C(OC2OC(CN)C(O)C2O)C2OC(n3ccc(=O)[nH]c3=O)C(O)C2O)C(=O)N(C)C1C(=O)O` (stereo not drawn) [Compound VII-C], for which the “Minimum growth inhibitory concentration (mcg/ml) against bacteria Micrococcus luteus FDA16” value in the assay on Micrococcus luteus FDA16 is above 50 µg/mL. Moreover, the “Minimum growth inhibitory concentration (mcg/ml) against bacteria Staphylococcus aureus FDA209P” value in assay [1] stood at 12.5 µg/mL. The “Minimum growth inhibitory concentration (mcg/ml) against bacteria Mycobacterium smegmatis ATCC607” value in assay [3] was 0.78 µg/mL.

On to `CCCCCCCC(=O)OC1CN(C)C(C(OC2OC(CN)C(O)C2O)C2OC(n3ccc(=O)[nH]c3=O)C(O)C2O)C(=O)N(C)C1C(=O)O` (stereo not drawn) [Compound VII-B], for which, in the assay on Micrococcus luteus FDA16, the “Minimum growth inhibitory concentration (mcg/ml) against bacteria Micrococcus luteus FDA16” value was above 50 µg/mL. In addition, the “Minimum growth inhibitory concentration (mcg/ml) against bacteria Staphylococcus aureus FDA209P” value in assay [1] worked out at 12.5 µg/mL. In addition, the “Minimum growth inhibitory concentration (mcg/ml) against bacteria Mycobacterium smegmatis ATCC607” value in assay [3] was determined as 1.56 µg/mL.

As for `CCCCCCCCC=CCCCCCCCCNC(=O)C1C(OC(=O)CCCCCCCCCCC)CN(C)C(C(OC2OC(CN)C(O)C2O)C2OC(n3ccc(=O)[nH]c3=O)C(O)C2O)C(=O)N1C` (stereo not drawn) [Compound VI-R], the “Minimum growth inhibitory concentration (mcg/ml) against bacteria Micrococcus luteus FDA16” value with Micrococcus luteus FDA16 is 3.13 µg/mL. For the same compound, the “Minimum growth inhibitory concentration (mcg/ml) against bacteria Staphylococcus aureus FDA209P” value in assay [1] was 25 µg/mL. In addition, the “Minimum growth inhibitory concentration (mcg/ml) against bacteria Mycobacterium smegmatis ATCC607” value in assay [3] worked out at 6.25 µg/mL.

Take `CCCCCCCCCCCCN1C(=O)C(C(O)CN(C)C(C(=O)NC)C(OC2OC(CN)C(O)C2O)C2OC(n3ccc(=O)[nH]c3=O)C(O)C2O)N(C)C1=O` (stereo not drawn) [Compound VIII-G]: the “Minimum growth inhibitory concentration (mcg/ml) against bacteria Micrococcus luteus FDA16” value with Micrococcus luteus FDA16 was 6.25 µg/mL. Further, in assay [1], the “Minimum growth inhibitory concentration (mcg/ml) against bacteria Staphylococcus aureus FDA209P” value turned out to be 25 µg/mL. Further, the “Minimum growth inhibitory concentration (mcg/ml) against bacteria Staphylococcus aureus ATCC607” value in assay [2] is 12.5 µg/mL.

In the case of `CCCCCCCCCCCCCCCCCCOC(=O)C1=CCN(C)C(C(OC2OC(CN)C(O)C2O)C2OC(n3ccc(=O)[nH]c3=O)C(O)C2O)C(=O)N1C` (stereo not drawn) [Compound III-CC], in the assay on Micrococcus luteus FDA16, the “Minimum growth inhibitory concentration (mcg/ml) against bacteria Micrococcus luteus FDA16” value is 6.25 µg/mL. Besides, in assay [1], the “Minimum growth inhibitory concentration (mcg/ml) against bacteria Staphylococcus aureus FDA209P” value was determined as 12.5 µg/mL. In assay [3], the “Minimum growth inhibitory concentration (mcg/ml) against bacteria Mycobacterium smegmatis ATCC607” value was above 100 µg/mL.

Turning to `CCCCCCCCCCCC[C@@H](CC(=O)O[C@H]1CN(C)[C@@H]([C@H](O[C@@H]2O[C@H](CN)[C@@H](O)[C@H]2O)[C@H]2O[C@@H](n3ccc(=O)[nH]c3=O)[C@H](O)[C@@H]2O)C(=O)N(C)[C@@H]1C(=O)O)OC(=O)C[C@H](C)CC(=O)O[C@@H]1O[C@@H](C)C(OC)[C@@H](OC)[C@H]1OC` (stereo partly drawn) [caprazamycin C], the “antibacterial activities” value in the assay with acid-fast bacteria is on record as “high antibacterial activities”.

`CCCCCCC#CCCOC(=O)C1=CCN(C)C(C(OC2OC(CN)C(O)C2O)C2OC(n3ccc(=O)[nH]c3=O)C(O)C2O)C(=O)N1C` (stereo not drawn) [Compound III-GG]: the “Minimum growth inhibitory concentration (mcg/ml) against bacteria Micrococcus luteus FDA16” value in the assay with Micrococcus luteus FDA16 stood at 6.25 µg/mL. In assay [1], the “Minimum growth inhibitory concentration (mcg/ml) against bacteria Staphylococcus aureus FDA209P” value is 50 µg/mL. Besides, the “Minimum growth inhibitory concentration (mcg/ml) against bacteria Mycobacterium smegmatis ATCC607” value in assay [3] was 25 µg/mL.

For the compound `CCCc1ccc(NC(=O)C2=CCN(C)C(C(OC3OC(CN)C(O)C3O)C3OC(n4ccc(=O)[nH]c4=O)C(O)C3O)C(=O)N2C)cc1` (stereo not drawn) [Compound II-3], in the assay with Micrococcus luteus FDA16, the “Minimum growth inhibitory concentration (mcg/ml) against bacteria Micrococcus luteus FDA16” value amounted to 3.13 µg/mL. For the same compound, in assay [1], the “Minimum growth inhibitory concentration (mcg/ml) against bacteria Staphylococcus aureus FDA209P” value was determined as 25 µg/mL. Also, in assay [3], the “Minimum growth inhibitory concentration (mcg/ml) against bacteria Mycobacterium smegmatis ATCC607” value came to 12.5 µg/mL.

As for `CCCCCCCCCCCN1C(=O)C(C(O)CN(C)C(C(=O)NC)C(OC2OC(CN)C(O)C2O)C2OC(n3ccc(=O)[nH]c3=O)C(O)C2O)N(C)C1=O` (stereo not drawn) [Compound VIII-F], the “Minimum growth inhibitory concentration (mcg/ml) against bacteria Micrococcus luteus FDA16” value with Micrococcus luteus FDA16 turned out to be 6.25 µg/mL. Also, the “Minimum growth inhibitory concentration (mcg/ml) against bacteria Staphylococcus aureus FDA209P” value in assay [1] was found to be 25 µg/mL. For the same compound, in assay [2], the “Minimum growth inhibitory concentration (mcg/ml) against bacteria Staphylococcus aureus ATCC607” value turned out to be 6.25 µg/mL.
